From US8222404B2, “[1,2,4]Thiadiazin-3-yl acetic acid compound and methods of making the acetic acid compound” (Anadys Pharmaceuticals, Inc., priority 2008, dated 2012)

System: HCV Huh-luc/neo-ET replicon cells
Assay: Luciferase-Based HCV Replicon Assay (EC50 (1b))
Assay type: cell-based
Details: Hepatitis C virus, 72 hours exposure, luciferase activity
Protocol: Luciferase-Based HCV Replicon Assay Protocol (EC50 (1b))
The cell culture component of the assay was performed essentially as described by Bartenschlager et al., Hepatology 2002, 35, 694-703, wherein exponentially growing HCV Huh-luc/neo-ET replicon cells were seeded at 6×10^3 cells/well in 96 well assay plate. 24 hours later the cells were treated with various concentrations of compound in triplicate. After 72 hours exposure to the compound, the luciferase activity in the wells was determined using Bright-Glo reagent (Promega, Madison, Wis.) with a luminometer (Wallac 1420 Multilabel HTS Counter Victor 2). The background control was replicon cells treated with 100 nM BILN-2061, an inhibitor of the HCV protease. % Inhibition was determined for each compound concentration in relation to the negative (no compound) control to calculate the EC50 (1b).

Structure (SMILES)	EC50 [nM]
CS(=O)(=O)NCc1csc2c1S(=O)(=O)N=C(C1=C(O)C3CCCCC3N(C3CCCCC3)C1=O)N2 (racemic) [Example 100, (rac-cis)-N-[3-(1-Cyclohexyl-4-hydroxy-2-oxo-1,2,4a,5,6,7,8,8a-octahydro-quinolin-3-yl)-1,1-dioxo-1,4-dihydro-1λ^6-thieno[2,3-e][1,2,4]thiadiazin-7-ylmethyl]-methanesulfonamide]	100 to 1000
CS(=O)(=O)NCc1csc2c1S(=O)(=O)N=C(C1=C(O)C3CCCCC3N(CC3CCCCC3)C1=O)N2 (racemic) [Example 104, (rac-cis)-N-[3-(1-Cyclohexylmethyl-4-hydroxy-2-oxo-1,2,4a,5,6,7,8,8a-octahydro-quinolin-3-yl)-1,1-dioxo-1,4-dihydro-1λ^6-thieno[2,3-e][1,2,4]thiadiazin-7-ylmethyl]-methanesulfonamide]	100 to 1000
CS(=O)(=O)NCc1csc2c1S(=O)(=O)N=C(C1=C(O)C3CCCCCC3N(CC3CCCCC3)C1=O)N2 (racemic) [Example 105, (rac-cis)-N-[3-(1-Cyclohexylmethyl-4-hydroxy-2-oxo-2,4a,5,6,7,8,9,9a-octahydro-1H-cyclohepta[b]pyridin-3-yl)-1,1-dioxo-1,4-dihydro-1λ^6-thieno[2,3-e][1,2,4]thiadiazin-7-ylmethyl]-methanesulfonamide]	100 to 1000
CS(=O)(=O)NCc1csc2c1S(=O)(=O)N=C(C1=C(O)C3CCCCC3N(Cc3ccc(F)cc3)C1=O)N2 (racemic) [Example 116, (rac-cis)-N-{3-[1-(4-Fluoro-benzyl)-4-hydroxy-2-oxo-1,2,4a,5,6,7,8,8a-octahydro-quinolin-3-yl]-1,1-dioxo-1,4-dihydro-1λ^6-thieno[2,3-e][1,2,4]thiadiazin-7-ylmethyl}-methanesulfonamide]	20 to 100
CS(=O)(=O)NCc1csc2c1S(=O)(=O)N=C(C1=C(O)C3CCCCC3N(Cc3ccc(F)cc3Cl)C1=O)N2 (racemic) [Example 117, (rac-cis)-N-{3-[1-(2-Chloro-4-fluoro-benzyl)-4-hydroxy-2-oxo-1,2,4a,5,6,7,8,8a-octahydro-quinolin-3-yl]-1,1-dioxo-1,4-dihydro-1λ^6-thieno[2,3-e][1,2,4]thiadiazin-7-ylmethyl}-methanesulfonamide]	100 to 1000
CS(=O)(=O)NCc1csc2c1S(=O)(=O)N=C(C1=C(O)C3CCCCC3N(Cc3ccc(F)cc3F)C1=O)N2 (racemic) [Example 118, (rac-cis)-N-{3-[1-(2,4-Difluoro-benzyl)-4-hydroxy-2-oxo-1,2,4a,5,6,7,8,8a-octahydro-quinolin-3-yl]-1,1-dioxo-1,4-dihydro-1λ^6-thieno[2,3-e][1,2,4]thiadiazin-7-ylmethyl}-methanesulfonamide]	100 to 1000
CS(=O)(=O)NCc1csc2c1S(=O)(=O)N=C(C1=C(O)C3CCCCC3N(Cc3ccc(F)c(Cl)c3)C1=O)N2 (racemic) [Example 119, (rac-cis)-N-{3-[1-(3-Chloro-4-fluoro-benzyl)-4-hydroxy-2-oxo-1,2,4a,5,6,7,8,8a-octahydro-quinolin-3-yl]-1,1-dioxo-1,4-dihydro-1λ^6-thieno[2,3-e][1,2,4]thiadiazin-7-ylmethyl}-methanesulfonamide]	100 to 1000
CS(=O)(=O)NCc1csc2c1S(=O)(=O)N=C(C1=C(O)C3CCCCCC3N(Cc3ccc(F)cc3)C1=O)N2 (racemic) [Example 120, (rac-cis)-N-{3-[1-(4-Fluoro-benzyl)-4-hydroxy-2-oxo-2,4a,5,6,7,8,9,9a-octahydro-1H-cyclohepta[b]pyridin-3-yl]-1,1-dioxo-1,4-dihydro-1λ^6-thieno[2,3-e][1,2,4]thiadiazin-7-ylmethyl}-methanesulfonamide]	20 to 100
CS(=O)(=O)NCc1csc2c1S(=O)(=O)N=C(C1=C(O)C3CCCCCC3N(Cc3ccc(F)cc3Cl)C1=O)N2 (racemic) [Example 121, (rac-cis)-N-{3-[1-(2-Chloro-4-fluoro-benzyl)-4-hydroxy-2-oxo-2,4a,5,6,7,8,9,9a-octahydro-1H-cyclohepta[b]pyridin-3-yl]-1,1-dioxo-1,4-dihydro-1λ^6-thieno[2,3-e][1,2,4]thiadiazin-7-ylmethyl}-methanesulfonamide]	> 1000
CS(=O)(=O)NCc1csc2c1S(=O)(=O)N=C(C1=C(O)C3CCCCCC3N(Cc3ccc(F)cc3F)C1=O)N2 (racemic) [Example 122, (rac-cis)-N-{3-[1-(2,4-Difluoro-benzyl)-4-hydroxy-2-oxo-2,4a,5,6,7,8,9,9a-octahydro-1H-cyclohepta[b]pyridin-3-yl]-1,1-dioxo-1,4-dihydro-1λ^6-thieno[2,3-e][1,2,4]thiadiazin-7-ylmethyl}-methanesulfonamide]	> 1000
CS(=O)(=O)NCc1csc2c1S(=O)(=O)N=C(C1=C(O)C3CCCCCC3N(Cc3ccc(F)c(Cl)c3)C1=O)N2 (racemic) [Example 123, (rac-cis)-N-{3-[1-(3-Chloro-4-fluoro-benzyl)-4-hydroxy-2-oxo-2,4a,5,6,7,8,9,9a-octahydro-1H-cyclohepta[b]pyridin-3-yl]-1,1-dioxo-1,4-dihydro-1λ^6-thieno[2,3-e][1,2,4]thiadiazin-7-ylmethyl}-methanesulfonamide]	100 to 1000
CS(=O)(=O)NCc1csc2c1S(=O)(=O)N=C(C1=C(O)C3CCCCC3N(Cc3ccccc3)C1=O)N2 (racemic) [Example 130, (rac-cis)-N-[3-(1-Benzyl-4-hydroxy-2-oxo-1,2,4a,5,6,7,8,8a-octahydro-quinolin-3-yl)-1,1-dioxo-1,4-dihydro-1λ^6-thieno[2,3-e][1,2,4]thiadiazin-7-ylmethyl]-methanesulfonamide]	100 to 1000
Cc1cc(CN2C(=O)C(C3=NS(=O)(=O)c4c(CNS(C)(=O)=O)csc4N3)=C(O)C3CCCCC32)ccc1F (racemic) [Example 131, (rac-cis)-N-{3-[1-(4-Fluoro-3-methyl-benzyl)-4-hydroxy-2-oxo-1,2,4a,5,6,7,8,8a-octahydro-quinolin-3-yl]-1,1-dioxo-1,4-dihydro-1λ^6-thieno[2,3-e][1,2,4]thiadiazin-7-ylmethyl}-methanesulfonamide]	100 to 1000
CC(C)CCN1C(=O)C(C2=NS(=O)(=O)c3c(CNS(C)(=O)=O)csc3N2)=C(O)C2CCCCC21 (racemic) [Example 132, (rac-cis)-N-{3-[4-Hydroxy-1-(3-methyl-butyl)-2-oxo-1,2,4a,5,6,7,8,8a-octahydro-quinolin-3-yl]-1,1-dioxo-1,4-dihydro-1λ^6-thieno[2,3-e][1,2,4]thiadiazin-7-ylmethyl}-methanesulfonamide]	20 to 100
CC(C)(C)CCN1C(=O)C(C2=NS(=O)(=O)c3c(CNS(C)(=O)=O)csc3N2)=C(O)C2CCCCC21 (racemic) [Example 133, (rac-cis)-N-{3-[1-(3,3-Dimethyl-butyl)-4-hydroxy-2-oxo-1,2,4a,5,6,7,8,8a-octahydro-quinolin-3-yl]-1,1-dioxo-1,4-dihydro-1λ^6-thieno[2,3-e][1,2,4]thiadiazin-7-ylmethyl}-methanesulfonamide]	20 to 100
CS(=O)(=O)NCc1csc2c1S(=O)(=O)N=C(C1=C(O)C3CCCCC3N(Cc3ccc(F)c(F)c3)C1=O)N2 (racemic) [Example 134, (rac-cis)-N-{3-[1-(3,4-Difluoro-benzyl)-4-hydroxy-2-oxo-1,2,4a,5,6,7,8,8a-octahydro-quinolin-3-yl]-1,1-dioxo-1,4-dihydro-1λ^6-thieno[2,3-e][1,2,4]thiadiazin-7-ylmethyl}-methanesulfonamide]	> 1000
